Experimental data from patent US9567371B2, “Short beta-defensin-derived peptides” (Yeda Research and Development Co. Ltd., priority 2009, dated 2017).
Peptide text beside a SMILES is read from it.

Legend:
[1] = system: G2 cells and mouse BM MNC; test: Chemotaxis assay (untreated cells migrate towards peptide in bottom chamber); type: cell-based; details: 1 and 10 μM peptide in bottom chamber, 4 hrs
Protocol: FIGS. 9A-9B. AK-1 increases SDF-1-induced migration and chemotaxis of G2 and mouse bone marrow mononuclear cells (BM MNC). (A) G2 cells and mouse BM MNC were preincubated with 1 and 10 μM AK-1 for 3 hrs in serum free medium, washed and allowed to migrate towards SDF-1. Migrated cells were collected and calculated by flow cytometry. Percentage of migrated cells is presented as compared to untreated control taken as 100%. (B) Untreated G2 cells and mouse BM MNC were put to the upper chambers of the transwell plates and allowed to migrate towards 1 and 10 μM AK-1 present the bottom chambers of the transwell plates for 4 hrs. Percentage of migrated cells is presented as compared to untreated (UT) control taken as 100%. Data shown are the mean±SD of 2 separate experiments. *P<0.05 compared to control.
Various cells (1×10^6/mL), untreated or pretreated with peptides for 3 hrs at 96-well flat bottom plates at 37° C. were washed, 2×10^5 cells/100 μL were added to the upper chambers of Costar 24-well transwell plates with 5 μm pore filters (Corning Inc., Corning, N.Y.) and allowed to migrate for 2-4 hrs at 37° C. (95% humidity, 5% CO2) spontaneously or towards 50 ng/mL SDF-1 (rhSDF-1, Peprotech, Rocky Hill, N.J.) in medium supplemented with 10% FCS. […] Migrated cells were collected from the lower chambers and counted using a flow cytometer. […]

MG-63 cells = test: SDF-1, bFGF and HGF secretion by stromal cells (ELISA of supernatants); type: cell-based, human; details: 10 μM, compared with untreated cells
Protocol: (§1) FIGS. 7A-7F. Effect of TL-1, AK-1 and cyclic TL-1 on SDF-1, bFGF and HGF secretion by different stromal cell lines. MS-5, MBA-15 and MG-63 cells were co-cultured with 10 μM TL-1, AK-1 or cyclic TL-1 in the serum free medium for 6 hrs, or without added peptide (UT). Levels of SDF-1 (A-C), bFGF (D) and HGF (E, F) were detected in the collected supernatants by ELISA. Data shown are the mean±SD of 2 separate experiments. *P<0.05 compared to control.
SDF-1 levels in tested samples were determined by ELISA as described (Kalinkovich, A., et al., 2006) where the K15C monoclonal antibodies (mAb, INRA, Paris, France) recognizing the first three amino acids of SDF-1 were utilized as a capture Ab (10 μg/mL) in order to measure levels of intact, non-cleaved SDF-1. Levels of basic FGF (bFGF) and HGF in tested samples were determined by using corresponding capture mAbs and polyclonal biotynilated Abs (R&D Systems) as recommended by the manufacturer. In order to examine SDF-1, bFGF and HGF levels in cell supernatants, MS-5, MBA-15 and MG-63 cells were seeded in 24-well Costar wells and cultivated in RPMI 1640 or αMEM Eagle medium, respectively, with 10% FCS. […]
(§2) In order to examine the capability of the peptides to induce secretion of other proteins, the levels of Hepatocyte growth factor (HGF) and Basic fibroblast growth factor (bFGF) were detected in the same supernatants.

MS-5 cells = test: as above; type: cell-based, mouse; details: 10 μM, compared with untreated cells
Protocol: as §1
SDF-1 levels in tested samples were determined by ELISA as described (Kalinkovich, A., et al., 2006) where the K15C monoclonal antibodies (mAb, INRA, Paris, France) recognizing the first three amino acids of SDF-1 were utilized as a capture Ab (10 μg/mL) in order to measure levels of intact, non-cleaved SDF-1. Levels of basic FGF (bFGF) and HGF in tested samples were determined by using corresponding capture mAbs and polyclonal biotynilated Abs (R&D Systems) as recommended by the manufacturer. In order to examine SDF-1, bFGF and HGF levels in cell supernatants, MS-5, MBA-15 and MG-63 cells were seeded in 24-well Costar wells and cultivated in RPMI 1640 or αMEM Eagle medium, respectively, with 10% FCS. When the cells reached confluence, the medium was changed to serum free medium and cells were cultivated for additional 6 hrs in the presence of various concentrations of the peptides. Medium samples were collected and centrifuged 10 min at 6000×g at 4° C. to remove cell debris. Supernatants were collected and kept at −70° C. until tested.
Because BM stromal cells, such as endosteal bone lining osteoblasts and endothelial cells are the main source of human and murine SDF-1, the capability of the peptides to affect SDF-1 secretion by mouse stromal MS-5 and MBA-15 cells, and human osteoblast MG-63 cells was examined.
as §2

C57BL/6 mice = test: Mobilization assay: hematopoietic progenitor cells (CFU from PB MNC); type: in vivo, mouse
Protocol: FIG. 3. Dose-response effect of TL-1 and AK-1 on mobilization of hematopoietic progenitor cells to peripheral blood. C57BL/6 mice were s.c. injected with 1, 5 or 10 mg/kg of TL-1 or AK-1. Control mice were injected with PBS. After 1-1.5 h, mice were sacrificed, peripheral blood mononuclear cells (PB MNC) were separated by Ficoll, seeded into the methylcellulose, and the number of colony-forming units (CFU) was estimated. Data shown are the number of CFU per 2×10^5 seeded PB MNC cells. Vertical bars represent standard deviation of duplicate experiments. *P<0.05 compared to control.
FIG. 5. TL-1 synergizes with G-CSF to mobilize hematopoietic progenitor cells to peripheral blood. C57BL/6 mice were s.c. injected with 5 mg/kg of AMD3100 (AMD), TL-1, AK-1, TL-1+AMD3100, or AK-1+AMD3100. Other mice were injected with G-CSF, alone or with TL-1 or AMD3100. Control mice were injected with PBS. After 1-1.5 h, mice were sacrificed, peripheral blood mononuclear cells (PB MNC) were separated by Ficoll, seeded into the methylcellulose, and the number of colony-forming units (CFU) was estimated. Data shown are the number of CFU per 2×10^5 seeded PB MNC cells. Vertical bars represent standard deviation of duplicate experiments. *P<0.05 compared to control.
C57BL/6 mice were injected s.c. with PBS (control), 5 mg/kg AMD3100, or one of the peptides TL-1, cyclic TL-1 and AK-1, at various doses. Another group of mice was s.c. injected with 5 mg/kg AMD3100 together with TL-1, or cyclic TL-1, or AK-1 (all peptides at 5 mg/kg), 1-1.5 hr before sacrifice. An additional group of mice was s.c. injected with-G-CSF at a dose of 5 μg/mouse once a day for 5 days. Mice were sacrificed 4 hrs post last G-CSF injection; 1-1.5 before sacrifice, mice were injected with TL-1, cyclic TL-1 or AK-1, all at 5 mg/kg. Peripheral blood (PB) was collected from mice by cardiac puncture into heparin containing tubes and the number of white blood cells (WBC) per 1 mL of blood was calculated. The tubes were centrifuged, plasma was collected and kept at −20° C. until tested. In order to evaluate the number of progenitor cells, PB mononuclear cells were isolated using Ficoll gradient centrifugation, and seeded (2×10^5 cells/plate) in methylcellulose with cytokines as described (Spiegel, A., et al., 2004, Goichberg, P., et al., 2006). Colonies, reflecting colony-forming units (CFU), were scored after 7 days.
In the same experiments, blood mononuclear cells were collected and tested for the presence of colony-forming cells reflecting the number of HPC.

U937 cells = test: Transwell migration towards SDF-1; type: cell-based, human
Protocol: Various cells (1×10^6/mL), untreated or pretreated with peptides for 3 hrs at 96-well flat bottom plates at 37° C. were washed, 2×10^5 cells/100 μL were added to the upper chambers of Costar 24-well transwell plates with 5 μm pore filters (Corning Inc., Corning, N.Y.) and allowed to migrate for 2-4 hrs at 37° C. (95% humidity, 5% CO2) spontaneously or towards 50 ng/mL SDF-1 (rhSDF-1, Peprotech, Rocky Hill, N.J.) in medium supplemented with 10% FCS. In the chemotaxis assay, untreated cells were added to the upper chambers and the peptides were added to the lower chambers in serum free medium. Migrated cells were collected from the lower chambers and counted using a flow cytometer. Data are presented as a percentage of migrated cells.
To address this issue, the cells were incubated with the peptides for 3 hrs, washed and then allowed to migrate towards SDF-1.

## N=C(N)NCCC[C@@H]1NC(=O)CNC(=O)[C@H](CCCNC(=N)N)NC(=O)[C@H](CCCCN)NC(=O)[C@H](CCCCN)NC(=O)[C@H](CCCNC(=N)N)NC(=O)[C@H](CCCNC(=N)N)NC(=O)[C@H](CS)NC(=O)[C@H](CS)NC(=O)[C@H](CCCCN)NC1=O [cyclic TL-1, 1,10-cyclo[RGRKCCRRKK]] (cyclo(CCRRKKRGRK))
[1]
  chemotaxis of untreated cells towards the peptide: ineffective
MG-63 cells
  levels of SDF-1 in supernatants: ineffective
MS-5 cells
  levels of SDF-1 in supernatants: increased the levels of SDF-1 secretion by MS-5 and MBA-15 cells but much less as compared with TL-1 and AK-1
C57BL/6 mice; 1 mg/kg s.c.
  HPC mobilization (colony-forming cells): did not induce mobilization of HPC
C57BL/6 mice; 5 mg/kg each
  HPC mobilization in combination with AMD3100: inhibited AMD3100-induced mobilization
C57BL/6 mice; 5 mg/kg s.c.
  HPC mobilization, peptide alone in the comparison/combination experiments: inhibitory effect
C57BL/6 mice; 5 mg/kg s.c., dose response experiments
  HPC mobilization (colony-forming cells): did not induce mobilization of HPC
C57BL/6 mice; 10 mg/kg s.c.
  HPC mobilization (colony-forming cells): inhibitory effect
U937 cells; 1 μM
  SDF-1-induced migration: ineffective
U937 cells; 10 μM
  inhibition of SDF-1-induced migration: 2 fold
